Measurements: BigSolDB 2.1

CO/N=C(\C(=O)Sc1nc2ccccc2s1)c1csc(N)n1
Details	solubility (mole fraction)
in ethanol, 277.67 K	0.000203
in ethanol, 283.11 K	0.000248
in ethanol, 288.17 K	0.000325
in ethanol, 293.09 K	0.000399
in ethanol, 298.17 K	0.000517
in ethanol, 303.09 K	0.000688
in isobutanol, 277.67 K	0.000148
in isobutanol, 283.07 K	0.000171
in isobutanol, 287.99 K	0.000206
in isobutanol, 292.79 K	0.000268
in isobutanol, 297.77 K	0.000345
in isobutanol, 304.27 K	0.000531
in isopentanol, 277.65 K	0.000183
in isopentanol, 283.07 K	0.000215
in isopentanol, 288.37 K	0.000286
in isopentanol, 293.03 K	0.000371
in isopentanol, 298.17 K	0.000472
in isopentanol, 302.63 K	0.000622
in isopropanol, 277.91 K	0.000116
in isopropanol, 283.21 K	0.000142
in isopropanol, 288.05 K	0.000168
in isopropanol, 293.19 K	0.000211
in isopropanol, 298.13 K	0.000283
in isopropanol, 303.13 K	0.000365
in n-butanol, 278.11 K	0.000262
in n-butanol, 283.53 K	0.00032
in n-butanol, 288.37 K	0.000424
in n-butanol, 293.03 K	0.000525
in n-butanol, 297.73 K	0.000662
in n-butanol, 303.71 K	0.000962
in n-pentanol, 278.27 K	0.000283
in n-pentanol, 283.33 K	0.00034
in n-pentanol, 288.15 K	0.000433
in n-pentanol, 293.23 K	0.000564
in n-pentanol, 298.17 K	0.000744
in n-pentanol, 303.15 K	0.000992
in n-propanol, 277.85 K	0.000226
in n-propanol, 283.17 K	0.000256
in n-propanol, 288.13 K	0.000332
in n-propanol, 293.17 K	0.000414
in n-propanol, 297.97 K	0.000544
in n-propanol, 302.81 K	0.00079
